{"source": "PubChem BioAssay AID1259407", "about": "(Chemical Carcinogenesis Research Information System (CCRIS), 2018)", "system": "CCRIS mutagenicity, Ames/micronucleus/aberration tests", "experiment": "CCRIS mutagenicity studies", "source_text": "The CCRIS database contains chemical records with carcinogenicity, mutagenicity, tumor promotion, and tumor inhibition test results. It was developed by the National Cancer Institute (NCI). Data are derived from studies cited in primary journals, current awareness tools, NCI reports, and other sources. Test results have been reviewed by experts in carcinogenesis and mutagenesis.\nCCRIS provides historical information from the years 1985 - 2011. It is no longer updated.\nThis is an archive assay for CCRIS mutagenicity studies.", "key": {"[1]": {"details": "Test System: AMES SALMONELLA TYPHIMURIUM, Strain/Indicator: TA98, Metabolic Activation: NONE, Method: PREINCUBATION"}, "[2]": {"details": "Test System: AMES SALMONELLA TYPHIMURIUM, Strain/Indicator: TA100, Metabolic Activation: NONE, Method: PREINCUBATION"}, "[3]": {"details": "Test System: AMES SALMONELLA TYPHIMURIUM, Strain/Indicator: TA1535, Metabolic Activation: NONE, Method: PREINCUBATION"}, "[4]": {"details": "Test System: AMES SALMONELLA TYPHIMURIUM, Strain/Indicator: TA1537, Metabolic Activation: NONE, Method: PREINCUBATION"}}, "note": "Entries after “also recorded” stand apart in the source; their conditions may differ. Calls of active or inactive are those of the source. How the calls were made is not given here.", "data": [{"smiles": "CC(C)(C)C(=O)C1C(=O)c2ccccc2C1=O", "values": [{"measurement": "mutagenic call", "setting": "Test System: AMES SALMONELLA TYPHIMURIUM, Strain/Indicator: TA98, Metabolic Activation: HAMSTER, LIVER, S-9, AROCLOR 1254 (10%), Method: PREINCUBATION", "result": "inactive; negative"}, {"measurement": "mutagenic call", "setting": "[1]", "result": "inactive; negative"}, {"measurement": "mutagenic call", "setting": "Test System: AMES SALMONELLA TYPHIMURIUM, Strain/Indicator: TA98, Metabolic Activation: RAT, LIVER, S-9, AROCLOR 1254 (10%), Method: PREINCUBATION", "result": "inactive; negative"}, {"measurement": "mutagenic call", "setting": "Test System: AMES SALMONELLA TYPHIMURIUM, Strain/Indicator: TA100, Metabolic Activation: HAMSTER, LIVER, S-9, AROCLOR 1254 (10%), Method: PREINCUBATION", "result": "inactive; negative"}, {"measurement": "mutagenic call", "setting": "[2]", "result": "inactive; negative"}, {"measurement": "mutagenic call", "setting": "Test System: AMES SALMONELLA TYPHIMURIUM, Strain/Indicator: TA100, Metabolic Activation: RAT, LIVER, S-9, AROCLOR 1254 (10%), Method: PREINCUBATION", "result": "inactive; negative"}, {"measurement": "mutagenic call", "setting": "Test System: AMES SALMONELLA TYPHIMURIUM, Strain/Indicator: TA1535, Metabolic Activation: HAMSTER, LIVER, S-9, AROCLOR 1254 (10%), Method: PREINCUBATION", "result": "inactive; negative"}, {"measurement": "mutagenic call", "setting": "[3]", "result": "inactive; negative"}, {"measurement": "mutagenic call", "setting": "Test System: AMES SALMONELLA TYPHIMURIUM, Strain/Indicator: TA1535, Metabolic Activation: RAT, LIVER, S-9, AROCLOR 1254 (10%), Method: PREINCUBATION", "result": "inactive; negative"}, {"measurement": "mutagenic call", "setting": "Test System: AMES SALMONELLA TYPHIMURIUM, Strain/Indicator: TA1537, Metabolic Activation: HAMSTER, LIVER, S-9, AROCLOR 1254 (10%), Method: PREINCUBATION", "result": "inactive; negative"}, {"measurement": "mutagenic call", "setting": "[4]", "result": "inactive; negative"}, {"measurement": "mutagenic call", "setting": "Test System: AMES SALMONELLA TYPHIMURIUM, Strain/Indicator: TA1537, Metabolic Activation: RAT, LIVER, S-9, AROCLOR 1254 (10%), Method: PREINCUBATION", "result": "inactive; negative"}]}, {"smiles": "Oc1c(Cl)c(Cl)c(O)c(Cl)c1Cl", "values": [{"measurement": "mutagenic call", "setting": "Test System: CHINESE HAMSTER V79 CELLS, Strain/Indicator: V79 CELLS (HPRT)/6-THIOGUANINE, Metabolic Activation: NONE, Method: PREINCUBATION", "result": "active; positive"}, {"measurement": "mutagenic call", "setting": "Test System: CHINESE HAMSTER V-79, Strain/Indicator: V-79/6-THIOGUANINE, Metabolic Activation: NONE, Method: SUSPENSION/PLATE", "result": "active; positive"}, {"measurement": "mutagenic call", "setting": "Test System: CHINESE HAMSTER V-79, Strain/Indicator: V-79/OUABAIN, Metabolic Activation: NONE, Method: SUSPENSION/PLATE", "result": "inactive; negative"}, {"measurement": "mutagenic call", "setting": "Test System: UDS HUMAN FIBROBLASTS, Strain/Indicator: THY INCORP, Metabolic Activation: NONE, Method: AUTORADIOGRAPHY", "result": "active; positive"}]}, {"smiles": "CN(C)CCNC(=O)c1cc2ccccc2c2cccnc12", "values": [{"measurement": "mutagenic call", "setting": "Test System: AMES SALMONELLA TYPHIMURIUM, Strain/Indicator: TA1537, Metabolic Activation: NONE, Method: STANDARD PLATE", "result": "active; positive"}]}, {"smiles": "OCCCCCCO", "values": [{"measurement": "mutagenic call", "setting": "[1]", "result": "inactive; negative"}, {"measurement": "mutagenic call", "setting": "Test System: AMES SALMONELLA TYPHIMURIUM, Strain/Indicator: TA98, Metabolic Activation: RAT LIVER S-9, PHENOBARBITAL AND BETA-NAPHTHOFLAVONE, Method: PREINCUBATION", "result": "inactive; negative"}, {"measurement": "mutagenic call", "setting": "[2]", "result": "inactive; negative"}, {"measurement": "mutagenic call", "setting": "Test System: AMES SALMONELLA TYPHIMURIUM, Strain/Indicator: TA100, Metabolic Activation: RAT LIVER S-9, PHENOBARBITAL AND BETA-NAPHTHOFLAVONE, Method: PREINCUBATION", "result": "inactive; negative"}, {"measurement": "mutagenic call", "setting": "[3]", "result": "inactive; negative"}, {"measurement": "mutagenic call", "setting": "Test System: AMES SALMONELLA TYPHIMURIUM, Strain/Indicator: TA1535, Metabolic Activation: RAT LIVER S-9, PHENOBARBITAL AND BETA-NAPHTHOFLAVONE, Method: PREINCUBATION", "result": "inactive; negative"}, {"measurement": "mutagenic call", "setting": "[4]", "result": "inactive; negative"}, {"measurement": "mutagenic call", "setting": "Test System: AMES SALMONELLA TYPHIMURIUM, Strain/Indicator: TA1537, Metabolic Activation: RAT LIVER S-9, PHENOBARBITAL AND BETA-NAPHTHOFLAVONE, Method: PREINCUBATION", "result": "inactive; negative"}, {"measurement": "mutagenic call", "setting": "Test System: E.COLI, Strain/Indicator: WP2UVRA/PKM101, Metabolic Activation: NONE, Method: PREINCUBATION", "result": "inactive; negative"}, {"measurement": "mutagenic call", "setting": "Test System: E.COLI, Strain/Indicator: WP2UVRA/PKM101, Metabolic Activation: RAT LIVER S-9, PHENOBARBITAL AND BETA-NAPHTHOFLAVONE, Method: PREINCUBATION", "result": "inactive; negative"}]}, {"smiles": "Oc1ccc(Cl)c(Cl)c1Cl", "values": [{"measurement": "mutagenic call", "setting": "End Point: IN VITRO CHROMOSOMAL ABERRATIONS, Test System: CHINESE HAMSTER LUNG CELLS (CHL), Metabolic Activation: NONE", "result": "inactive; negative"}, {"measurement": "mutagenic call", "setting": "End Point: IN VITRO CHROMOSOMAL ABERRATIONS, Test System: CHINESE HAMSTER LUNG CELLS (CHL), Metabolic Activation: RAT, LIVER, S-9, KC-400", "result": "inactive; negative"}, {"measurement": "mutagenic call", "setting": "End Point: IN VITRO CHROMOSOMAL ABERRATIONS, Test System: CHINESE HAMSTER OVARY CELLS (CHO), Metabolic Activation: NONE", "result": "inactive; negative"}, {"measurement": "mutagenic call", "setting": "End Point: IN VITRO CHROMOSOMAL ABERRATIONS, Test System: CHINESE HAMSTER OVARY CELLS (CHO), Metabolic Activation: RAT, LIVER, S-9, AROCLOR 1254", "result": "active; positive (structural changes); positive only at highest dose where a total of 25"}, {"measurement": "mutagenic call", "setting": "End Point: IN VITRO CHROMOSOMAL ABERRATIONS, Test System: CHL CELLS, Metabolic Activation: S-9", "result": "inactive; positive (structural changes); multilaboratory comparison among 5 labs; 4 report; also recorded: inactive; positive (structural changes); multilaboratory comparison among 6 labs; 5 report"}, {"measurement": "mutagenic call", "setting": "End Point: IN VITRO CHROMOSOMAL ABERRATIONS, Test System: CHO CELLS, Metabolic Activation: NONE", "result": "inactive; positive (structural changes); multilaboratory comparison among 5 labs; 4 report; also recorded: inactive; negative; multilaboratory comparison among 5 labs; 1 reported weakly positive; 4; also recorded: inactive; negative; multilaboratory comparison among 4 labs; negative except for 1 weak po"}, {"measurement": "mutagenic call", "setting": "End Point: IN VITRO CHROMOSOMAL ABERRATIONS, Test System: CHO CELLS, Metabolic Activation: S-9", "result": "active; positive (structural changes); multilaboratory comparison among 6 labs; all repo; also recorded: inactive; positive (structural changes); multilaboratory comparison among 5 labs; 2 report"}, {"measurement": "mutagenic call", "setting": "Test System: AMES SALMONELLA TYPHIMURIUM, Strain/Indicator: TA97, Metabolic Activation: HAMSTER, LIVER, S-9, AROCLOR 1254 (10 OR 30%), Method: PREINCUBATION", "result": "inactive; negative"}, {"measurement": "mutagenic call", "setting": "Test System: AMES SALMONELLA TYPHIMURIUM, Strain/Indicator: TA97, Metabolic Activation: NONE, Method: PREINCUBATION", "result": "inactive; negative"}, {"measurement": "mutagenic call", "setting": "Test System: AMES SALMONELLA TYPHIMURIUM, Strain/Indicator: TA97, Metabolic Activation: RAT, LIVER, S-9, AROCLOR 1254 (10 OR 30%), Method: PREINCUBATION", "result": "inactive; negative"}, {"measurement": "mutagenic call", "setting": "Test System: AMES SALMONELLA TYPHIMURIUM, Strain/Indicator: TA98, Metabolic Activation: HAMSTER, LIVER, S-9, AROCLOR 1254 (10 OR 30%), Method: PREINCUBATION", "result": "inactive; negative"}, {"measurement": "mutagenic call", "setting": "[1]", "result": "inactive; negative"}, {"measurement": "mutagenic call", "setting": "Test System: AMES SALMONELLA TYPHIMURIUM, Strain/Indicator: TA98, Metabolic Activation: RAT, LIVER, S-9, AROCLOR 1254 (10 OR 30%), Method: PREINCUBATION", "result": "inactive; negative"}, {"measurement": "mutagenic call", "setting": "Test System: AMES SALMONELLA TYPHIMURIUM, Strain/Indicator: TA100, Metabolic Activation: HAMSTER, LIVER, S-9, AROCLOR 1254 (10 OR 30%), Method: PREINCUBATION", "result": "inactive; negative"}, {"measurement": "mutagenic call", "setting": "[2]", "result": "inactive; negative"}, {"measurement": "mutagenic call", "setting": "Test System: AMES SALMONELLA TYPHIMURIUM, Strain/Indicator: TA100, Metabolic Activation: RAT, LIVER, S-9, AROCLOR 1254 (10 OR 30%), Method: PREINCUBATION", "result": "inactive; negative"}, {"measurement": "mutagenic call", "setting": "Test System: AMES SALMONELLA TYPHIMURIUM, Strain/Indicator: TA1535, Metabolic Activation: HAMSTER, LIVER, S-9, AROCLOR 1254 (10 OR 30%), Method: PREINCUBATION", "result": "inactive; negative"}, {"measurement": "mutagenic call", "setting": "[3]", "result": "inactive; negative"}, {"measurement": "mutagenic call", "setting": "Test System: AMES SALMONELLA TYPHIMURIUM, Strain/Indicator: TA1535, Metabolic Activation: RAT, LIVER, S-9, AROCLOR 1254 (10 OR 30%), Method: PREINCUBATION", "result": "inactive; negative"}, {"measurement": "mutagenic call", "setting": "Test System: AMES SALMONELLA TYPHIMURIUM, Strain/Indicator: TA1537, Metabolic Activation: HAMSTER, LIVER, S-9, AROCLOR 1254 (30%), Method: PREINCUBATION", "result": "inactive; negative"}, {"measurement": "mutagenic call", "setting": "[4]", "result": "inactive; negative"}, {"measurement": "mutagenic call", "setting": "Test System: AMES SALMONELLA TYPHIMURIUM, Strain/Indicator: TA1537, Metabolic Activation: RAT, LIVER, S-9, AROCLOR 1254 (30%), Method: PREINCUBATION", "result": "inactive; negative"}]}]}
